Assays:
[1] = target: T1, 5-hydroxytryptamine receptor 6 (Homo sapiens, UniProt P50406); assay: Displacement of [3H]LSD from human 5HT6 receptor expressed in HEK293 cells; format: cell-based
[2] = Lipophilicity, log D of the compound; format: physicochemical; conditions: octanol/water
[3] = target: 5-hydroxytryptamine receptor 7 (Homo sapiens, UniProt P34969); assay: Displacement of [3H]LSD from human 5HT7 receptor expressed in cells; format: cell-based
[4] = target: T2, 5-hydroxytryptamine receptor 2C (Homo sapiens, UniProt P28335); assay: Displacement of [3H]mesulergine from human 5HT2C receptor expressed in cells; format: cell-based
T2 sequence (P28335 whole entry): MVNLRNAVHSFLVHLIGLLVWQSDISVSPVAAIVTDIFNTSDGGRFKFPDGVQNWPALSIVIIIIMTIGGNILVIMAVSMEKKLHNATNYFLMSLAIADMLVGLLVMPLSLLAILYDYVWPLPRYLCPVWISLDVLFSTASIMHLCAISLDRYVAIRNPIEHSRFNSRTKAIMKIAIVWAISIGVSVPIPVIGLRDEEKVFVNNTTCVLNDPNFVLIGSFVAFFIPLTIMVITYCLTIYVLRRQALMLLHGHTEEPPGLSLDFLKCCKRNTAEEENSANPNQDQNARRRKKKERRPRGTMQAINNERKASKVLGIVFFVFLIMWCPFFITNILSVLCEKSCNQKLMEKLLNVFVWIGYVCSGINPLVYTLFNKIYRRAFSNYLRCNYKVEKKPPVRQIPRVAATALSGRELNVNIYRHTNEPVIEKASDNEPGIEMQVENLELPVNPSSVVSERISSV

D(2) dopamine receptor = D(2) dopamine receptor (Homo sapiens, UniProt P14416); assay: Displacement of [3H]spiperone from human dopamine D2 receptor expressed in cells; format: cell-based
Chain of D(2) dopamine receptor (P14416 whole entry): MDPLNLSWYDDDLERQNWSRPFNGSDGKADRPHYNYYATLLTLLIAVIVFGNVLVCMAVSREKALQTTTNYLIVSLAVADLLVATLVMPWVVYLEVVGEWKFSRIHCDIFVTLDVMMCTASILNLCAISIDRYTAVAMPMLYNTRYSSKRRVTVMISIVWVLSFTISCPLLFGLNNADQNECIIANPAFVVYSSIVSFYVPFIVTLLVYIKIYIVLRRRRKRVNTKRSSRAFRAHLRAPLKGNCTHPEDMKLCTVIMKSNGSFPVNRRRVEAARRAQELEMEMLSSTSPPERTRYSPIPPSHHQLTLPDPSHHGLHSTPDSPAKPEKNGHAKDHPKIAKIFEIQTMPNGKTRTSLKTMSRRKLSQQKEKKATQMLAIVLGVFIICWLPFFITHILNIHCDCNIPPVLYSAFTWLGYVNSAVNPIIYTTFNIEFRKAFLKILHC

D(4) dopamine receptor = target: T3, D(4) dopamine receptor (Homo sapiens, UniProt P21917); assay: Displacement of [3H]spiperone from human dopamine D4 receptor expressed in cells; format: cell-based
T3 sequence (P21917 whole entry): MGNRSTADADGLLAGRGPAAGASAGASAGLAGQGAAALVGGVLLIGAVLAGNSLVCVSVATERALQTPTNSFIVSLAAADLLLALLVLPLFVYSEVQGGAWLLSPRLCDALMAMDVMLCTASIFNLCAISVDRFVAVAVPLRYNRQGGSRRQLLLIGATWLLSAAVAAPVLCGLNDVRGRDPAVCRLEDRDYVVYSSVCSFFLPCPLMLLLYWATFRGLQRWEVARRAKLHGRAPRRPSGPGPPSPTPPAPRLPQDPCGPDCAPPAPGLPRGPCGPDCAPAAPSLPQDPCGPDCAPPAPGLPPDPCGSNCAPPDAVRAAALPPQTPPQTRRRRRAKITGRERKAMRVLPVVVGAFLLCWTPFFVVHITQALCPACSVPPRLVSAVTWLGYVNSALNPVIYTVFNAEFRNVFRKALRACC

D(3) dopamine receptor = D(3) dopamine receptor (Homo sapiens, UniProt P35462); assay: Displacement of [3H]spiperone from human dopamine D3 receptor expressed in cells; format: cell-based
Chain of D(3) dopamine receptor (P35462 whole entry): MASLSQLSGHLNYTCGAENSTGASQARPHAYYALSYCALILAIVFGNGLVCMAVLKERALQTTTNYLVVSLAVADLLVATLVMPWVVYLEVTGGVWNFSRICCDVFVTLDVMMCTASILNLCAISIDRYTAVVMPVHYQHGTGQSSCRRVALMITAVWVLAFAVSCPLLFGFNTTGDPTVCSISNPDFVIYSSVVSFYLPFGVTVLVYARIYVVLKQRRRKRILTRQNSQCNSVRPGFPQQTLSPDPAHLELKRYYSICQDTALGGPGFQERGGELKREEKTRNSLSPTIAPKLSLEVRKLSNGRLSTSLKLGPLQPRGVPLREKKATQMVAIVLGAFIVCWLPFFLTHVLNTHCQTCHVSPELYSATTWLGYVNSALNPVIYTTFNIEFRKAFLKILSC

[5] = target: 5-hydroxytryptamine receptor 2A (Homo sapiens, UniProt P28223); assay: Displacement of [3H]ketanserin from human 5HT2A receptor expressed in cells; format: cell-based
Chain of 5-hydroxytryptamine receptor 2A (P28223 whole entry): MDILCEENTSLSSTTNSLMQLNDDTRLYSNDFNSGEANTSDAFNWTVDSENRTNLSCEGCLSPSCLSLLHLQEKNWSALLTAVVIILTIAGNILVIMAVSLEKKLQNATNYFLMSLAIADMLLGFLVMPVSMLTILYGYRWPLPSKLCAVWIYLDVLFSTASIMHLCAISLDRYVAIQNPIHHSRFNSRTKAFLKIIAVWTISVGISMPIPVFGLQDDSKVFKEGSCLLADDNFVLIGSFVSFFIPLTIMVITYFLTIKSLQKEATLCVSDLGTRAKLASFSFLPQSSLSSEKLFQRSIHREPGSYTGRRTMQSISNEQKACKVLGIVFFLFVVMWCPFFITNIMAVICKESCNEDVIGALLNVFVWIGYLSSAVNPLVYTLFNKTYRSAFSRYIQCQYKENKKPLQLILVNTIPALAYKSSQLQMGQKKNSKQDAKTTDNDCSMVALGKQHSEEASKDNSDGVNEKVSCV

[6] = target: T4, 5-hydroxytryptamine receptor 1A (Homo sapiens, UniProt P08908); assay: Displacement of [3H]8-OH-DPAT from human 5HT1A receptor expressed in cells; format: cell-based
T4 sequence (P08908 whole entry): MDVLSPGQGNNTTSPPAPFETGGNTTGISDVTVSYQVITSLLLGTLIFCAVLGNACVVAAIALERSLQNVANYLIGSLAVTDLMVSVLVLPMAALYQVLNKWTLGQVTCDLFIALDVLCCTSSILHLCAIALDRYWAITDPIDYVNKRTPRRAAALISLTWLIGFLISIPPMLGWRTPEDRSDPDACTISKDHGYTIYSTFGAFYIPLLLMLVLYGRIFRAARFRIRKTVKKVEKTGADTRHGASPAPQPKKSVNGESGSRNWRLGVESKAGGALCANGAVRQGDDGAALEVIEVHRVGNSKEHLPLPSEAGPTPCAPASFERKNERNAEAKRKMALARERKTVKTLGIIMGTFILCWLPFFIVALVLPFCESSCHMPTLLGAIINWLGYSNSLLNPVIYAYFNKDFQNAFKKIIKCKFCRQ

[7] = target: T1, 5-hydroxytryptamine receptor 6; assay: Antagonist activity at human 5HT6 receptor expressed in HeLa cells assessed as inhibition of 5-HT-stimulated cAMP accumulation; format: functional, cell-based
[8] = target: T1, 5-hydroxytryptamine receptor 6; assay: Binding affinity to 5HT6 receptor

T1 sequence (P50406 whole entry): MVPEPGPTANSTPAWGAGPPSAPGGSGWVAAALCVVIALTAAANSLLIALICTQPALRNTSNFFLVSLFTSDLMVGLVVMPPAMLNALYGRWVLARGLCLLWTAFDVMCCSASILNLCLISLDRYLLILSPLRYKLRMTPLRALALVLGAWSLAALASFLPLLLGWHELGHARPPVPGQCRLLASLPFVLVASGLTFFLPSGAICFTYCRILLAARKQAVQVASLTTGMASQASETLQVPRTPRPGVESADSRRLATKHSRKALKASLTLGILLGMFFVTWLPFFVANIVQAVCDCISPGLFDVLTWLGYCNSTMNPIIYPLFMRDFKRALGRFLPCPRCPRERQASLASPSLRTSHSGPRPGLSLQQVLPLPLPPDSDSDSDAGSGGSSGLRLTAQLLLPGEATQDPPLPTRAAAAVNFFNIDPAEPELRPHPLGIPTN
Chain of 5-hydroxytryptamine receptor 7 (P34969 whole entry): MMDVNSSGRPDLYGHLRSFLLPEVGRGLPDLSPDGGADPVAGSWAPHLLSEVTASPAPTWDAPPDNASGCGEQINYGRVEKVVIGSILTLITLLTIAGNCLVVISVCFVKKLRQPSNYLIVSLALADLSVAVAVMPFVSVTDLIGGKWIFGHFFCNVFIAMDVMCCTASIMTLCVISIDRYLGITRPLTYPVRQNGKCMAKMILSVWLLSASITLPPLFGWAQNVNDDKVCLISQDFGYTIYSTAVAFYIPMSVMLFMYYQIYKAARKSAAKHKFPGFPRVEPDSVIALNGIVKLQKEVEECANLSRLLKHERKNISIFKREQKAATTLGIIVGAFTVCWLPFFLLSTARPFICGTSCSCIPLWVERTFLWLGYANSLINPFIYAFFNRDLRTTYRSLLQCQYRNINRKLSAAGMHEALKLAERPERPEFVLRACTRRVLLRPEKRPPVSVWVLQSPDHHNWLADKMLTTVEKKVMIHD

Compound | IC50 [1] [nM] | IC50 [3] [nM] | IC50 [4] [nM] | IC50 (D(2) dopamine receptor) [nM] | IC50 (D(4) dopamine receptor) [µM] | IC50 (D(3) dopamine receptor) [nM] | IC50 [5] [nM] | IC50 [6] [nM] | other results
Cc1ccc(S(=O)(=O)N2CCC(=O)c3c(N4CCN(C)CC4)cccc32)cc1 | 129 | – | – | – | – | – | – | – | –
COc1cc2c(cc1N1CCN(C)CC1)N(S(=O)(=O)c1ccc3ccccc3c1)CCC2=O | 165 | – | – | – | – | – | – | – | –
CN1CCN(c2ccc3c(c2)C(=O)CCN3S(=O)(=O)c2ccc3ccccc3c2)CC1 | 311 | – | – | – | – | – | – | – | –
COc1ccc(NS(=O)(=O)c2sc3ccc(Cl)cc3c2C)cc1N1CCN(C)CC1 | – | – | – | – | – | – | – | – | logD [2]: 2.99
CN1CCN(c2cc(Cl)cc3c2C(=O)CCN3S(=O)(=O)c2ccc3ccccc3c2)CC1 | 47 | – | – | – | – | – | – | – | –
Cc1c(S(=O)(=O)N2CCC(=O)c3ccc(N4CCN(C)CC4)cc32)sc2ccc(Cl)cc12 | 419 | – | – | – | – | – | – | – | –
CN1CCN(c2cc(Br)cc3c2C(=O)CCN3S(=O)(=O)c2ccc3ccccc3c2)CC1 | 58 | – | – | – | – | – | – | – | –
CSc1nn2c(N3CCNCC3)c3c(nc2c1S(=O)(=O)c1ccccc1)CCC3 | – | – | – | – | – | – | – | – | Ki [8]: 2.51 nM

The next lines start with results.

IC50 [1] [nM] | IC50 [3] [nM] | IC50 [4] [nM] | IC50 (D(2) dopamine receptor) [nM] | IC50 (D(4) dopamine receptor) [µM] | IC50 (D(3) dopamine receptor) [nM] | IC50 [5] [nM] | IC50 [6] [nM] | Compound | other results
17 | – | – | – | – | – | – | – | C[C@H]1CC(=O)c2ccc(N3CCN(C)CC3)cc2N1S(=O)(=O)c1ccc2ccccc2c1 | –
61 | 620 | 438 | > 10000 | 1.79 | 2920 | 760 | 333 | CN1CCN(c2cccc3c2C(=O)CCN3S(=O)(=O)c2ccc3ccccc3c2)CC1 | –
43 | – | – | – | – | – | – | – | C[C@@H]1CC(=O)c2ccc(N3CCN(C)CC3)cc2N1S(=O)(=O)c1ccc2ccccc2c1 | –
28 | > 10000 | 558 | 136 | > 10 | 1520 | 1460 | 1600 | CC1CC(=O)c2ccc(N3CCN(C)CC3)cc2N1S(=O)(=O)c1ccc2ccccc2c1 (stereo not given) | logD [2]: 3.2
26 | 143 | 5190 | > 10000 | 3.61 | 1300 | 366 | 672 | CN1CCN(c2ccc3c(c2)N(S(=O)(=O)c2ccc4ccccc4c2)CCC3=O)CC1 | IC50 [7]: 188 nM
7 | – | – | – | – | – | – | – | C[C@H]1CC(=O)c2c(N3CCN(C)CC3)cccc2N1S(=O)(=O)c1ccc2ccccc2c1 | –
353 | – | – | – | – | – | – | – | C[C@@H]1CC(=O)c2c(N3CCN(C)CC3)cccc2N1S(=O)(=O)c1ccc2ccccc2c1 | –
11 | > 10000 | 19 | 1780 | > 10 | 180 | 704 | 1230 | Cc1cc(N2CCN(C)CC2)c2c(c1)N(S(=O)(=O)c1ccc3ccccc3c1)C(C)CC2=O (stereo not given) | –
9 | > 10000 | 4 | > 1000 | > 10 | 623 | 455 | 999 | CCC1CC(=O)c2c(N3CCN(C)CC3)cccc2N1S(=O)(=O)c1ccc2ccccc2c1 (stereo not given) | –
8 | 2010 | 30 | > 10000 | 5.52 | 482 | 48 | 1210 | CC1CC(=O)c2c(N3CCN(C)CC3)cccc2N1S(=O)(=O)c1ccc2ccccc2c1 (stereo not given) | logD [2]: 3.6
15 | – | – | – | – | – | – | – | Cc1ccc2c(c1N1CCN(C)CC1)C(=O)CC(C)N2S(=O)(=O)c1ccc2ccccc2c1 (stereo not given) | –
42 | – | – | – | – | – | – | – | CC1CC(=O)c2c(N3CCNCC3)cccc2N1S(=O)(=O)c1ccc2ccccc2c1 (stereo not given) | –

Reference: ChEMBL document CHEMBL1641464, “1-(Arylsulfonyl)-2,3-dihydro-1H-quinolin-4-one derivatives as 5-HT(6) serotonin receptor ligands” (Bioorg Med Chem Lett, 2011)
